Assay results taken from PMC8610377, “Target identification for small-molecule discovery in the FOXO3a tumor-suppressor pathway using a biodiverse peptide library” (Cell Chemical Biology, 2021).

Assays:
9J10/14-3-3ε interaction [1] = target: T1, 9J10/14-3-3ε interaction (Homo sapiens, UniProt P62258); test: competitive microscale thermophoresis (MST); format: binding; details: 20 nM labeled 14-3-3ε, 1 μM cognate peptide (EC80), 2% DMSO, 25°C; mean of three independent experiments
T1 construct: A synthetic gene construct encoding full length human 14-3-3ε; made in house; host or cells: E. coli BL21(DE3)
T1 sequence (P62258 1-255): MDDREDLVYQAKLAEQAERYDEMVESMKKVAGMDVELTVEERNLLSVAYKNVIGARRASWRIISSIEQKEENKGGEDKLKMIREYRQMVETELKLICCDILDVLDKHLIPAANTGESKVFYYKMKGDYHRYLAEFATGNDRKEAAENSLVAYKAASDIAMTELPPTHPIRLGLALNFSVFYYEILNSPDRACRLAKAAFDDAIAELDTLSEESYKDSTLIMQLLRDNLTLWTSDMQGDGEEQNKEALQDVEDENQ
Experimental: (§1) Protein purity was visualized by running SDS-PAGE.
The 14-3-3ε protein was labeled with NT-647-NHS fluorescent dye using the Monolith Protein Labeling Kit (Cat# MO-L011, NanoTemper Technologies). Assays were carried out in 10 mM Hepes, 150 mM NaCl and 0.01% Tween 20. For the direct binding assay, 10 μL of labeled protein at a final concentration of 20 nM was mixed with 10 μL of cognate peptide. For the competitive assay, 10 μL of labeled protein at a final concentration of 20 nM was mixed with 1 μM of cognate peptide at the EC80 concentration determined by prior titration using a 16-point serial dilution by direct-binding MST. […] An initial ‘‘CapillaryScan’’ was performed to scan for fluorescence across the length of the capillary tray to determine the exact position of each capillary before the MST measurement was started. Test compound in 2% final DMSO concentration was assayed at 16 different concentrations by serial dilution, and data were analyzed using NanoTemper analysis software with ‘‘T-jump + Thermophoresis’’ settings. The change in thermophoresis between different experimental conditions was expressed as the change in the normalized fluorescence (ΔFnorm), which is defined as Fhot/Fcold (F-values correspond to average fluorescence values between defined areas in the curve under steadystate conditions under control (Fcold) or experimental (Fhot) conditions). […]

[2] = tested on: polo-box domain of human polo-like kinase 1 (PLK1); test: selectivity: substrate recognition by polo-box domain; format: binding
9J10/14-3-3ε interaction [3] = target: T1, 9J10/14-3-3ε interaction; test: FP competition, TAMRA-p9J10Min binding to 14-3-3ε; details: 10nM TAMRA-p9J10Min, His-14-3-3ε 1.5 μM, top concentration 200 μM, 0.4% DMSO; mean of three independent experiments; read-out: IC50, FP
Experimental: Protein purity was visualized by running SDS-PAGE. […] Compound dilution plates, black 384 well NBS assay plates and tip racks were loaded into the Cytomat as indicated by the scheduling software. […] Test compounds were diluted to 3X final concentration in the dilution plates. 10 μL of diluted compound was added into each well of the assay plate followed by 10μL of […]-3-3ε and 10μL of TAMRA-p9J10Min. Plates were incubated at room temperature for 20 min on the robot's deck or in the Cytomat before the Fluorescence Polarisation was read using the BMG PheraStar plate reader. Test compounds were assayed in triplicate. […] DMSO controls were run alongside all experimental compounds and % inhibition normalised to these controls. All other experimental conditions were as described above.

14-3-3ε = target: T2, 14-3-3ε (Homo sapiens, UniProt P62258); test: STD-NMR; format: binding; details: 100 μM 9J10, 10 μM 14-3-3ε, 2% d6-DMSO
T2 sequence (P62258 1-255): T1 sequence (P62258 1-255)
Experimental: as §1
1H NMR and STD spectra were recorded with a Bruker Avance-III HD 600 MHz at 298 K. Bruker TopSpin software was used to acquire and process the NMR data. NMR samples were prepared in D2O, with 100 μM 9J10 peptide (LNRTPGRRRN(p-Serine)N-acid) (Sigma-Aldrich), and 10 μM 14-3-3ε protein. For STD NMR measurements standard Bruker pulse sequence stddiffesgp.3 was used, the on-resonance frequency was set to be 0 ppm, and the off-resonance frequency at −40 ppm. The number of scans was typically 64, both the saturation pulses and relaxation delay were set to be 5 s and the power of the shaped pulse for saturation was set at 40 dB. Experiments with the varying concentrations of CU7218 were performed by mixing appropriate volume of the compound in DMSO and the final DMSO concentration was adjusted to 2.0% by using d6-DMSO.

Cc1c(C(=O)O)sc2[nH]c(=S)[nH]c(=O)c12 [CU7218]
IC50 (9J10/14-3-3ε interaction [1]): 26.5 µM
disruption of substrate recognition by PLK1 polo-box domain [2]: failed to disrupt substrate recognition
IC50 (9J10/14-3-3ε interaction [3]): 111 µM
9J10 STD signal intensity with CU7218 (14-3-3ε): markedly reduced the 9J10 STD signal intensity
lowest CU7218 concentration markedly reducing the 9J10 STD signal (14-3-3ε; tested 50-250 μM): ≥ 150 µM
